Assay results as given in US9265771B2, “Method for treating Lyme disease” (Zoetis Services LLC, priority 2012, dated 2016).

Legend:
Format in all cases: in vivo, beagle dogs
[1] = tested on: B. burgdorferi; assay: Study B: QC6 ELISA in tick-infected dogs; conditions: 8 dogs/group
Excerpt: (§1) Three outer surface proteins (Osp) on B. burgdorferi are important for diagnosis and prevention, and are expressed by the organism in response to its local environment. […] OspF is another surface protein that is generally observed in late-stage disease. The C in […] refers to a 25-amino acid, C6 peptide in the sixth invariable region of an outer membrane lipoprotein (VIsE). Antibody against C6 is highly accurate as a serologic diagnosis of Lyme disease independent of a subject's (e.g., canine) vaccination status. Further, the generation of C6 antibodies implies an active infection with viable spirochetes. Serological methods for detecting B. burgdorfer/Lyme disease were conducted using the IDEXX qualitative SNAP-4Dx ELISA and the Quantitative C6 (Quant C6 or QC6) diagnostic kits, which are enzyme linked immunosorbent assays against the previously described 25-amino-acid C6 peptide. QC6 ELISA data, units/mL, are useful for guidance in initiating and evaluating response to therapy (See Levy S A, O'Connor T P, Hanscom J L, Shields P, et al. Quantitative measurement of a C6 antibody following antibiotic treatment of Borrelia burgdorferi antibody-positive, nonclinical dogs. Clin Vacc Immunol 2008; 15(1):115-119 and Littman M P, Goldstein R E, Labato M A, et al. ACVIM Small Animal Concensus Statement on Lyme Disease in Dogs: Diagnosis, Treatment and Prevention. J Vet Intern Med 2006; 20: 422-434).
(§2) Thirty-two (18 male and 14 female) beagle dogs were sero-negative for Borrelia burgdorferi, not vaccinated with any Borrelia spp vaccines, and acclimated at the study facility for seven days. The study was conducted under National Research Council guidelines (1996). […] Field-caught Ixodes from the northeast USA were placed on the dogs without containment chambers for 10 days; after ticks fed to repletion, dogs were treated with two applications of an approved topical acaricide with a 30-day interval between applications.
(§3) Forty days post-challenge, and prior to antibiotic treatments, blood was collected from each dog as were two skin biopsy punch samples near tick attachment sites. Blood was collected approximately monthly post-treatment. Skin biopsies were taken near the tick attachment site on Days 48/49, 118, 146, 180, and 315. Serum antibodies to Borrelia were assayed using the IDEXX SNAP-4Dx and QC6 ELISA. In cooperation with Cornell University, serum samples were analyzed using fluorescent-bead-based multiplex assays detecting antibodies against B. burgdorferi outer surface proteins OspA, OspC, and OspF. Data were expressed as median fluorescent intensities (MFI), and shown to be specific and sensitive to provide interpretative guidelines regarding infection. The skin biopsies were collected for a polymerase chain reaction (PCR; FlaB) assay and cultured for spirochete detection. At the end of the study, blood and skin biopsies were collected and synovial tissue from the joints were harvested at necropsy.
(§4) On Day 75 and Day 89 Convenia was administered to the eight dogs in T04 (8 mg/kg bodyweight; subcutaneous injection). The other treated groups received their respective regimens daily and orally for 30 days from Days 75 to 104. […] Dogs in T01 served as infected, untreated, controls. Inter-treatment comparisons to evaluate antibiotic efficacy included clinical signs, serology, culture results and pathology.

[2] = tested on: B. burgdorferi; assay: Study B: microscopic examination of joints and skin at necropsy; conditions: for Number of Joints with Changes as Described for Lyme disease: N = 8
Description: as §2, §3, §4
At necropsy ten joints were harvested per each dog, formalin-fixed, stained and examined microscopically. Joints included the carpus, elbow, shoulder, stifle and tarsus on both the right and left limbs. Further, a section of skin near tick attachment sites was evaluated from each dog. There were two dogs in the Convenia group (25%) with tissues showing changes as described for Lyme disease, compared to seven controls (87.5%) and three (37.5%) to four (50.0%) dogs in the other antibiotic-treated groups (Table 7). […] The Convenia group had the lowest incidence of joint changes with six affected of 80.

[3] = tested on: B. burgdorferi outer surface protein OspF; assay: Study B: fluorescent-bead-based multiplex assay, antibodies against OspF; conditions: for Multiplex Assay OspF: No. Dogs > Positive Threshold (# dogs > 1500): 8 dogs/group
Description: as §2
as §3, with “Data were expressed as median fluorescent intensities (MFI), and shown to be specific and sensitive to provide interpretative guidelines regarding infection.” left out
On Day 75 and Day 89 Convenia was administered to the eight dogs in T04 (8 mg/kg bodyweight; subcutaneous injection). The other treated groups received their respective regimens daily and orally for 30 days from Days 75 to 104. […] Dogs in T01 served as infected, untreated, controls.

[4] = tested on: B. burgdorferi; assay: Study B: SNAP-4Dx ELISA in tick-infected dogs; conditions: N = 8/group
Excerpt: as §1, §2, §3, §4

[5] = joints, skin, 8 dogs/group, necropsy

## C[C@H]1c2cccc(O)c2C(=O)C2=C(O)[C@]3(O)C(=O)C(C(N)=O)=C(O)[C@@H](N(C)C)[C@@H]3[C@@H](O)[C@@H]21 [doxycycline]
[1]; Day 48 (pre-treatment)
  Dogs Sero-converted to B. burgdorferi per QC6 ELISA (≧30 U/mL), (%): 75.0%
  Number of Dogs Sero-converted to B. burgdorferi per QC6 ELISA (≧30 U/mL), No.: 6
[1]; Day 111
  Dogs Sero-converted to B. burgdorferi per QC6 ELISA (≧30 U/mL), (%): 62.5%
  Number of Dogs Sero-converted to B. burgdorferi per QC6 ELISA (≧30 U/mL), No.: 5
[1]; Day 145
  Dogs Sero-converted to B. burgdorferi per QC6 ELISA (≧30 U/mL), (%): 0.0%
  Number of Dogs Sero-converted to B. burgdorferi per QC6 ELISA (≧30 U/mL), No.: 0
[1]; Day 179
  Dogs Sero-converted to B. burgdorferi per QC6 ELISA (≧30 U/mL), (%): 0.0%
  Number of Dogs Sero-converted to B. burgdorferi per QC6 ELISA (≧30 U/mL), No.: 0
[1]; Day 221
  Dogs Sero-converted to B. burgdorferi per QC6 ELISA (≧30 U/mL), (%): 0.0%
  Number of Dogs Sero-converted to B. burgdorferi per QC6 ELISA (≧30 U/mL), No.: 0
[1]; Day 251
  Dogs Sero-converted to B. burgdorferi per QC6 ELISA (≧30 U/mL), (%): 0.0%
  Number of Dogs Sero-converted to B. burgdorferi per QC6 ELISA (≧30 U/mL), No.: 0
[1]; Day 281
  Dogs Sero-converted to B. burgdorferi per QC6 ELISA (≧30 U/mL), (%): 0.0%
  Number of Dogs Sero-converted to B. burgdorferi per QC6 ELISA (≧30 U/mL), No.: 0
[1]; Day 314
  Dogs Sero-converted to B. burgdorferi per QC6 ELISA (≧30 U/mL), (%): 0.0%
  Number of Dogs Sero-converted to B. burgdorferi per QC6 ELISA (≧30 U/mL), No.: 0
[2]; 80 total/group
  Number of Joints with Changes as Described for Lyme disease, Cumulative: 11
[2]; Carpus L
  Number of Joints with Changes as Described for Lyme disease: 1
[2]; Carpus R
  Number of Joints with Changes as Described for Lyme disease: 2
[2]; Elbow L
  Number of Joints with Changes as Described for Lyme disease: 1
[2]; Elbow R
  Number of Joints with Changes as Described for Lyme disease: 1
[2]; Shoulder L
  Number of Joints with Changes as Described for Lyme disease: 1
[2]; Shoulder R
  Number of Joints with Changes as Described for Lyme disease: 0
[2]; Stifle L
  Number of Joints with Changes as Described for Lyme disease: 1
[2]; Stifle R
  Number of Joints with Changes as Described for Lyme disease: 2
[2]; Tarsus L
  Number of Joints with Changes as Described for Lyme disease: 2
[2]; Tarsus R
  Number of Joints with Changes as Described for Lyme disease: 0
[2]; [5]
  No Tissue Changes, # Dogs: 5
  No Tissue Changes, %: 62.5%
  Tissue Changes Described for Lyme Disease, # Dogs: 3
  Tissue Changes Described for Lyme Disease, %: 37.5%
[3]; Day 48 (pre-treatment)
  Multiplex Assay OspF: MFI Mean: 943.38 MFI
  Multiplex Assay OspF: No. Dogs > Positive Threshold (# dogs > 1500): 1
[3]; Day 111
  Multiplex Assay OspF: MFI Mean: 1174.38 MFI
  Multiplex Assay OspF: No. Dogs > Positive Threshold (# dogs > 1500): 1
[3]; Day 145
  Multiplex Assay OspF: MFI Mean: 490.63 MFI
  Multiplex Assay OspF: No. Dogs > Positive Threshold (# dogs > 1500): 0
[3]; Day 179
  Multiplex Assay OspF: MFI Mean: 395.88 MFI
  Multiplex Assay OspF: No. Dogs > Positive Threshold (# dogs > 1500): 0
[3]; Day 221
  Multiplex Assay OspF: MFI Mean: 334.75 MFI
  Multiplex Assay OspF: No. Dogs > Positive Threshold (# dogs > 1500): 0
[3]; Day 251
  Multiplex Assay OspF: MFI Mean: 340.88 MFI
  Multiplex Assay OspF: No. Dogs > Positive Threshold (# dogs > 1500): 0
[3]; Day 281
  Multiplex Assay OspF: MFI Mean: 343.63 MFI
  Multiplex Assay OspF: No. Dogs > Positive Threshold (# dogs > 1500): 0
[3]; Day 314
  Multiplex Assay OspF: MFI Mean: 353.25 MFI
  Multiplex Assay OspF: No. Dogs > Positive Threshold (# dogs > 1500): 0
[3]; Day −15 (pre-infection)
  Multiplex Assay OspF: MFI Mean: 113.50 MFI
  Multiplex Assay OspF: No. Dogs > Positive Threshold (# dogs > 1500): 0
[4]; Day 48 (pre-treatment; antibiotics from Day 75)
  SNAP-4Dx Positives, Number of Dogs: 6
[4]; Day 111
  SNAP-4Dx Positives, Number of Dogs: 7
[4]; Day 145
  SNAP-4Dx Positives, Number of Dogs: 6
[4]; Day 179
  SNAP-4Dx Positives, Number of Dogs: 1
[4]; Day 221
  SNAP-4Dx Positives, Number of Dogs: 0
[4]; Day 251
  SNAP-4Dx Positives, Number of Dogs: 0
[4]; Day 281
  SNAP-4Dx Positives, Number of Dogs: 0
[4]; Day 315
  SNAP-4Dx Positives, Number of Dogs: 0
[4]; Day −15 (pre-infection)
  SNAP-4Dx Positives, Number of Dogs: 0
